Measured values reported in patent US20050049305A1, “Use of L-carnitine in the prevention and treatment of hearing loss” (priority 2002, published 2005).
Read-outs that look alike come from different tables or passages of the source. Marks after values point to notes of the source that are not given here.

Tests used:
[1] = Coleman et al. 2001; cited from earlier work
HEI-OC1 cells [2] = assay: Caspase-8 and caspase-9 assays in cisplatin-treated cells; type: cell-based, mouse
HEI-OC1 cells [3] = assay: Cisplatin-induced apoptosis, DNA laddering and TUNEL; type: cell-based, mouse
Source text: The HEI-OC1 cell line was cloned from cochlear half-turn explants from of an Immortomouse™. […] They are polygonal squamous cells with a dense perinuclear region containing a dense accumulation of multivesicular structures. These multivesicular structures were also observed in the rest of the cytoplasm, although at a lower density. HEI-OC1 cells co-express markers specific for both sensory and supporting cells. Expression of Math-1 and myosin VIIa by these cells indicate that HEI-OC1 cells are indeed sensory hair cell precursors.
Apoptosis was confirmed using TUNEL (ApoAlert DNA Fragmentation Assay—Clontech, Palo Alto, Calif.).

[4] = test system: outer hair cells (OHCs) of organ of Corti; type: in vivo
Protocol: Pregnant guinea pigs were divided in three groups of 4 each. […] Those from group #2 also received a supplementary dose of LCAR in their drinking water (1 mg/ml ad libitum˜100 mg/kg/day) during the second half of the pregnancy and the immediate postnatal period. Guinea pigs from group #3 (4 mothers & 10 newborns), the control group, were injected with saline solution. Two weeks after delivery, all guinea pigs (mothers and newborns) were anesthetized by intraperitoneal injections of ketamine hydrochloride (60 mg/kg) and xylazine hydrochloride (5 mg/kg), and their auditory brainstem responses (ABR) were measured. They were then euthanized with CO2, and potential cochlear damage was evaluated by confocal microscopy.
The ABR results described in FIG. 1 were independently corroborated by confocal microscopy of the organ of Corti in mothers and newborns. […] The results of FIG. 2 are quantified in Table 1 and FIG. 3.

[5] = test system: guinea pigs (mothers and newborns); assay: Cisplatin-induced sensorineural hearing loss, auditory brainstem response (ABR); type: in vivo, guinea pig; conditions: two weeks after delivery, cisplatin 4 mg/kg i.p. once a day for 2 days, LCAR 1 mg/ml in drinking water, mean ±S.E.M.
newborn guinea pigs [6] = assay: Gentamicin-induced neonatal mortality; type: in vivo, guinea pig
Protocol: (§1) Guinea pigs were used to evaluate the impact of prenatal LCAR supplementation on stress- and gentamicin-induced mortality in newborns because this animal model closely resembles perinatal human physiology. Pregnant guinea pigs (n=25) were divided in five groups. […] In group #2, stress was induced by intraperitoneal injections of normal saline (once daily from days 51 to 57 of gestation). Guinea pigs in group #3 were injected with gentamicin (100 mg/kg once daily from days 51 to 57 of gestation). Finally, groups #4 and #5 were injected with gentamicin as described for group #3, but received LCAR supplementation in their water supply (1 mg/ml˜100 mg/kg/day) starting either 2 weeks prior (Group #4) or simultaneously with gentamicin (Group #5). Newborn mortality was defined as either stillborn or death within the first 48 hrs of life.

[7] = test system: guinea pigs (mothers and newborns); assay: Noise-induced hearing loss (ABR) and cochlear damage; type: in vivo, guinea pig
Protocol: (§2) In order to evaluate noise-induced neonatal mortality and the potential impact of prenatal LCAR supplementation, six pregnant guinea pigs were divided into three groups of two animals each. Pregnant guinea pigs in groups #1 and #2 were exposed 4 hours a day during 4 consecutive days to broadband noise (100 Hz-10 kHz) at 95 SPL during days 50 to 53 of gestation. In addition, guinea pigs in group #2 received daily LCAR supplementation in their water supply (1 mg/ml˜100 mg/kg/day) from day 28 of gestation. […] Noise exposure was performed in a sound booth, with the animals in individual plastic cages placed on a wire shelf at ˜0.8 m above the floor. Since at this time of pregnancy guinea pigs spend most of the time resting with the abdomen in contact with the cage floor, the speakers were placed below the shelf, with the sound waves directed toward the cage's floor. Sound pressure levels were measured with a calibrated digital sound level meter (Radio Shack #33-2055) inside the plastic cages.
Noise-induced cochlear damage and changes in hearing threshold were evaluated in mothers and newborns (ten days after delivery) in the three groups described in the above paragraph. We found moderate threshold shifts (˜9 dB) in mothers exposed to noise (group #1). […] In newborns, we also observed a higher hearing threshold in noise-exposed animals than in those of the control group (36±2 dB group #1 and 30±1 dB group #2 vs. 22±1 dB group #3 control).
Similar damage, but concentrated in smaller regions, was present in cochleas from LCAR-supplemented animals.

[8] = test system: outer hair cells (OHCs) and stereocilia bundles; assay: Gentamicin-induced cochlear damage, confocal and scanning electron microscopy; type: in vivo, guinea pig
Protocol: as §1
Confocal and electron microscopy studies indicate that gentamicin induces both sensory cell death and stereocilia disruption in mothers and newborn guinea pigs. […] Whereas in Control animals the three rows of OHCs look generally intact (FIG. 6B), cochleas from guinea pigs treated with gentamicin show “scars” where supporting cells replaced dead OHCs (FIG. 6C). In addition, stereocilia bundles look completely disorganized, with significant structural changes and even “giant” stereocilia (FIG. 6D). […]

newborn guinea pigs [9] = assay: Noise-induced neonatal mortality; type: in vivo, guinea pig; conditions: group #2: broadband noise 95 SPL 4 h/day, days 50-53 of gestation; LCAR 1 mg/ml in water from day 28
Protocol: as §2
The experimental protocol assume normal delivery after 59-62 days of pregnancy. In fact, control animals delivered at days 59 and 61, respectively. […] Neonatal mortality—expressed as the number of stillborn or newborn death within the first 48 hrs of life over the total number of animals delivered—was 77% in group #1 ( 7/9), 9% in group #2 ( 1/11), and 0% in group #3 (0/9).

HEI-OC1 cells [10] = assay: LCAR prevention of cisplatin- and gentamicin-induced apoptosis, colorimetric CaspACE assay; type: cell-based, mouse; conditions: 48 hours pre-incubation with 2 mg/ml LCAR
Source text: We further investigated whether LCAR was able to prevent cisplatin- and gentamicin-induced apoptosis in HEI-OC1 cells.

[11] = test system: guinea pigs (mothers and newborns); assay: Gentamicin-induced sensorineural hearing loss, ABR; type: in vivo
Protocol: as §1, with “Finally, groups #4 and #5 were injected with gentamicin as described for group #3, but received LCAR supplementation in their water supply (1 mg/ml˜100 mg/kg/day) starting either 2 weeks prior (Group #4) or simultaneously with gentamicin (Group #5).” left out
We investigated the hearing condition and cochlear integrity in the guinea pigs from the five experimental groups described in the above paragraph. Typical ABR recordings from newborn guinea pigs are shown in FIG. 4, while FIG. 5 describes the statistical results. […] Gentamicin (group #3), in contrast, induced a significant increase in hearing threshold in respect to saline (group #2) in mothers (49±3 dB vs. 28±2; P≦0.01) and newborns (38±2 vs. 29±1; P≦0.01).

[12] = humans, cited from earlier work
[13] = LCAR + Gentamicin = LCAR two weeks prior, Gentamicin + LCAR = simultaneous

For `CC(=O)O[C@H](CC(=O)[O-])C[N+](C)(C)C` [ALCAR, acetyl-L-carnitine], the “effect on noise-induced hearing loss” value [1] is given as “attenuates noise-induced hearing loss”.
For `N.N.[Cl][Pt][Cl]` [Cisplatin, cisplatin], the caspase-9 activity (HEI-OC1 cells [2]; 12-hour incubation with 100 μM cisplatin) was “increased about five-fold”, the caspase-8 activity (HEI-OC1 cells [2]; cisplatin-treated HEI-OC1 cells) was “little change in activity” and the “incubation time after which DNA laddering was visible” value (HEI-OC1 cells [3]; 100 μM cisplatin, periods 6 hours to 24 hours) was 18 h. For the same compound, the “cisplatin concentration at which apoptosis (laddering pattern) was first detected” value (HEI-OC1 cells [3]; 24 hours incubation, doses 25 μM to 500 μM) was 100 µM, the “cisplatin-induced inner hair cell (IHC) damage” value ([4]; guinea pig, in vivo) was “no significant” and the “loss of OHCs by cochlear turn” value ([4]; guinea pig, in vivo) was “significant loss of OHCs in the first and second turn of the cochlea”. The “Total % (damaged/total OHCs)” value ([4]; mothers) was 36.0 (297/824) %, the “damaged OHC (%) Row #1” value ([4]; mothers) was 39.6% and the “damaged OHC (%) Row #2” value ([4]; mothers) was 32.6%. The “damaged OHC (%) Row #3” value ([4]; mothers) was 35.9%, the “Total % (damaged/total OHCs)” value ([4]; newborns) was 34.9 (443/1268) % and the “damaged OHC (%) Row #1” value ([4]; newborns) was 50.2%. The “damaged OHC (%) Row #2” value ([4]; newborns) was 37.9%, the “damaged OHC (%) Row #3” value ([4]; newborns) was 16.9% and the “average ABR hearing threshold” value [5] was 46±4 dB.
For `C[N+](C)(C)C[C@H](O)CC(=O)[O-]` [LCAR, L-carnitine], the “neonatal mortality (stillborn or death within first 48 hrs)” value (“neonatal mortality” for short) (newborn guinea pigs [6]; group #4: gentamicin plus LCAR 1 mg/ml in water starting 2 weeks prior) was 15%, the “neonatal mortality” value (newborn guinea pigs [6]; group #5: gentamicin plus LCAR 1 mg/ml in water starting simultaneously) was 9% and the “effect of LCAR supplementation on cisplatin-induced OHC damage” value ([4]; mothers and newborns) was “attenuates this cisplatin-induced OHC damage”. The “noise-induced cochlear damage (microscopy)” value ([7]; LCAR-supplemented noise-exposed animals) was “significant decrease in cochlear damage”, the “hearing threshold shift in noise-exposed mothers” value ([7]; mothers, LCAR supplemented, ten days after delivery) was “no changes were observed” and the “hearing threshold in newborns” value ([7]; newborns, group #2 noise + LCAR, ten days after delivery) was 30±1 dB. For the same compound, the “effect on gentamicin-induced OHC death” value ([8]; LCAR prior vs simultaneous) was “significantly prevented only in animals supplemented with LCAR two weeks prior gentamicin treatment”, the “effect on gentamicin-induced stereocilia disruption” value ([8]; LCAR provided either prior or simultaneously with gentamicin) was “inhibit gentamicin-induced stereocilia disruption” and the “neonatal mortality” value (newborn guinea pigs [9]) was 9%. The “gentamicin-induced cell apoptosis (caspase-3, CaspACE)” value (HEI-OC1 cells [10]; then 24 hours 50 μM gentamicin) was “significantly inhibited”, the “cisplatin-induced cell apoptosis (caspase-3, CaspACE)” value (HEI-OC1 cells [10]; then 24 hours 200 μM cisplatin) was “significantly inhibited” and the “effect of LCAR supplementation on gentamicin ototoxicity (ABR)” value ([11]; LCAR from 28 days of pregnancy (group #4) or coincidental with gentamicin (group #5)) was “attenuates the ototoxic effects of gentamicin in both mothers and pups”. For the same compound, the “dietary LCAR absorbed” value ([12]; dietary) was 54-87% and the “LCAR filtered by the kidney that is reabsorbed” value [12] was 90-98%.
In the case of gentamicin, the “neonatal mortality” value (newborn guinea pigs [6]; group #3: gentamicin 100 mg/kg once daily, days 51 to 57 of gestation) is reported as 54%, the “OHC death, OHCs % Row #1” value [8, 13] is reported as 0.6* % and the “OHC death, OHCs % Row #2” value [8, 13] is reported as 0.9** %. The “OHC death, OHCs % Row #3” value [8, 13] was 0.8** %, the “OHC death, Total %” value [8, 13] was 0.7** % and the “ABR hearing threshold, mothers” value ([11]; mothers, group #3 gentamicin 100 mg/kg daily, days 51-57 of gestation) was 49±3 dB. The “ABR hearing threshold, newborns” value ([11]; newborns, group #3 gentamicin given to pregnant mothers) was 38±2 dB.
